# Assay results: patent publication US9717727B2, “Methods of treating and preventing leukemia and other cancers of the blood and bone” (The Trustees of Columbia University in the City of New York, priority 2011, dated 2017)
# Key:
# [1] = tested on: EL4-GFP-Luc lymphoma/lymphoblastic cells; experiment: EL4-GFP-Luc lymphoblastic leukemia mouse model, long-term oral LP-533401 treatment (Example 9); assay type: in vivo, mice
# Procedure: 8- to 10-week-old immunocompetent male mice were inoculated with tumor cells by tail vein injection. The EL4 cell line was established from a lymphoma-induced tumor in a C57BL mouse by 9,10-dimethyl-1,2-benzanthacene. An EL4 cell line transduced with green fluorescence protein and luciferase, EL4-GFP-Luc, was injected via the lateral tail vein of the B6(Cg)-Tyrc-2J mice (500,000 cells per mouse). The EL4-GFP-Luc fusion gene was used to allow cell trafficking and tumor progression to be assessed by an in vivo imaging system.
# Leukemia engraftment and progression was monitored using the Xenogen IVIS-200 System (IVIS® imaging system, Xenogen Corporation), an in vivo imaging technology platform that allows non-invasive visualization, and tracking of cellular and genetic activity within a living organism. The system consists of a CCD camera mounted on a light-tight specimen chamber, a camera controller, a cryogenic cooler, a fluorescence light source and a computer system for data acquisition and analysis. The system is capable of imaging bioilluminescence and fluorescence in living animals.
# In this study, since luminescence was being detected, luciferin as a substrate of luciferase was administered to the mice. The mice were monitored using the in vivo imaging system twice per week. Mice were anaesthetized using isoflurane, and then were injected intraperitoneally with luciferin (0.15 mg per g body weight) 10 minutes before the detection point. Mice were imaged using the in vivo system, setting the exposure time to 1 minute. Bioilluminescence intensity was recorded and counted.
# Blood was collected by cardiac puncture in EDTA (CBCs and blood smears) or non-EDTA (serum) coated tubes. For serum preparation, blood was kept at room temperature for 15 minutes and centrifuged at 15,700 g for 10 min at 4° C. Serum osteocalcin was measured using the Osteocalcin IRMA kit (Immutopics).
# Time-to-event analysis was used to assess two endpoints of interest, death and paralysis. The day which mice were inoculated with tumor cells was considered Day 1. Animals were followed up to 62 days. […] Kaplan-Meier curves were generated to illustrate time to death and paralysis, stratified by group status. Statistical significance of the between-group difference in the median time-to-endpoint was assessed by the log-rank test. Statistical analyses were performed using the EXCEL-XLSTAT and SAS softwares0. A P value less than 0.05 was considered statistically significant.
# Mice injected with the EL-4 cell line, EL4-GFP-Luc, were used as described in Example 2. The imaging system describe in Example 2 was used.
# Mice were treated orally with LP-533401 (25 or 200 mg per kg of body weight per day) or vehicle. Treatments started 15 days before malignant cell injections in all sets of experiments, and continued for the indicated periods of time. LP-533401 was dissolved in polyethylene glycol (PEG) and 5% dextrose or 2.5% glucose (Sigma), and given daily by oral gavage. Mice treated with vehicle were administered, in the same way as LP533401, a solution of PEG and 5% dextrose or 2.5% glucose, daily, by oral gavage.
# The mice were divided into four groups of mice: • Mice with no leukemia treated with a vehicle, i.e., non-leukemic-vehicle-treated (“WT”); • Mice with no leukemia treated with LP533401, i.e., non-leukemic-LP-533401-treated (“NL-LP”); • Mice with leukemia treated with a vehicle, i.e., leukemic-vehicle-treated (“Leuk-veh”); and • Mice with leukemia treated with LP-533401, leukemic-LP533410-treated (“Leuk-LP”).
# Treatment of the non-leukemic mice with the vehicle or LP-533401 lasted a total of 35 days and treatment of the leukemic animals with a vehicle or LP-533401 continued until the day mice were sacrificed, which occurred at different time points, depending upon the presence of signs of illness. […]
# [2] = tested on: bone loss; conditions: in vivo; cited from earlier work
# [3] = target: T1, Tph2 (Homo sapiens, UniProt Q8IWU9); conditions: in vitro; cited from earlier work
# T1 sequence (Q8IWU9 1-490): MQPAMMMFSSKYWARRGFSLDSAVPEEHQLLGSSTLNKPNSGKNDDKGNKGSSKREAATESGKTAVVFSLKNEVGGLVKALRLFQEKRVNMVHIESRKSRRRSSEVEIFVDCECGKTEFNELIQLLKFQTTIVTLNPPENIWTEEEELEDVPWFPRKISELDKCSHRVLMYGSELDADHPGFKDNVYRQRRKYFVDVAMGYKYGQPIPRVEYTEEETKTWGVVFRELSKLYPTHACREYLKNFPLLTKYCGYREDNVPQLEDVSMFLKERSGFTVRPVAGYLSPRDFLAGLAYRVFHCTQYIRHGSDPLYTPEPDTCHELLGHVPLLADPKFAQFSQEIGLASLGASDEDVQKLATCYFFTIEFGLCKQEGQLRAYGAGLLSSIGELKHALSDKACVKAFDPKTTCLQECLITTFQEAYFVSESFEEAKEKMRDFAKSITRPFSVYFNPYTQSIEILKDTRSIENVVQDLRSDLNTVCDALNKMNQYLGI
# [4] = tested on: EL4 cells; experiment: EL4 leukemia mouse model, all mice sacrificed at day 15 (Example 10); assay type: in vivo
# Procedure: Mice were sacrificed at pre-determined time points as specified before or upon signs of illness. Each animal was weighed before blood was sampled, and visually examined for tumor development. Spleens were isolated and weighed. Spleens and tissue samples from liver were fixed in 10% neutral formalin solution for 48 hours. Osseous samples (thoracic spine, sternum, pelvis, and stifle joint) were decalcified in Decalcifier System I (Leica Microsystems, Inc.) for 48 h after fixation. All tissues were processed by routine methods and embedded in paraffin Sections of 4 or 5 μm were stained with hematoxylin and eosin (H&E) according to standard procedures. Luciferase intensity was measured by plating 4.5 million bone marrow cells into 6-well plates. Luciferin was added at a final concentration of 150 μg/mL and luciferase activity was measured at a luminometer. Mice were treated orally with LP-533401 (25 or 200 mg per kg of body weight per day) or vehicle. Treatments started 15 days before malignant cell injections in all sets of experiments, and continued for the indicated periods of time. LP-533401 was dissolved in polyethylene glycol (PEG) and 5% dextrose or 2.5% glucose (Sigma), and given daily by oral gavage. Mice treated with vehicle were administered, in the same way as LP533401, a solution of PEG and 5% dextrose or 2.5% glucose, daily, by oral gavage. The same mice and techniques used in Example 9 were used in this Example, except all of the mice were sacrificed at day 15 following EL4 cell injection
# [5] = among ten leukemic mice treated
# [6] = leukemic mice (EL4), peripheral blood
structure (smiles),measurement,setting,value
Nc1nc(OC(c2ccc(-c3cccc(F)c3)cc2)C(F)(F)F)cc(-c2ccc(C[C@H](N)C(=O)O)cc2)n1 (stereo partly drawn) [LP-533401],number of treated leukemic mice that cleared their leukemia,[1]; [5],2
same,number of treated leukemic mice that never developed leukemia,[1]; [5],2
same,number of treated leukemic mice that developed leukemia at a late stage and then recovered,"[1]; among ten leukemic mice treated, day 28",1
same,animals that developed hind-limb paralysis,[1]; leukemic mice (EL4),38%
same,reticulocyte numbers,[1]; leukemic mice (EL4),prevented leukemia induced suppression of reticulocyte numbers
same,tumor burden by bioluminescence imaging / luciferase intensity,[1]; leukemic mice (EL4),decreased tumor burden
same,"anemia (red blood cells, hemoglobin, hematocrit)",[1]; [6],ameliorated anemia
same,leukemia-associated increase in WBCs,[1]; [6],diminished
same,"neutrophils, monocytes and lymphocytes",[1]; [6],restored to normal numbers
same,overall survival,[1]; mice with leukemia (EL4),significantly longer overall survival
same,effect against bone loss,[2],effective against bone loss
same,inhibition of Tph2 relative to Tph1,[3],inhibits Tph2 as effectively as Tph1
same,leukemic infiltration in the marrow (histology),[4]; day 15,reduced leukemic infiltration
same,leukemic mice with 20 to 40% blasts in the bone marrow,[4]; day 15,40%
same,leukemic mice with increased megakaryocyte number,[4]; day 15,20%
same,leukemic mice with less than 20% of blasts in the bone marrow,[4]; day 15,40%
same,leukemic mice with more than 80% blasts in the bone marrow,[4]; day 15,20%
same,"leukemia-induced changes in WBCs, monocytes, neutrophils and lymphocytes","[4]; day 15, leukemic mice",all prevented
same,liver leukemic involvement,"[4]; day 15, leukemic mice",normal or only small size focal infiltrates
same,myeloid hyperplasia,"[4]; day 15, leukemic mice",Mild myeloid hyperplasia
same,prevalence of immature lymphoblastic cells in the blood compared to healthy controls,"[4]; day 15, leukemic mice",did not show an increase
same,EL4 tumor burden,"[4]; day 15, whole body and bone marrow",decreased in whole body and in the bone marrow
same,"leukemia-caused decrease in bone volume, osteoblast numbers and bone formation rate",[4]; day 15 after EL4 injection,ameliorated
same,osteoclast numbers,[4]; day 15 after EL4 injection,Neither injection with EL4 cells nor treatment with LP-533401 affected osteoclast numbers
